In patent US10722575B2, “Use of 1,3-diphenylprop-2-en-1-one derivatives for treating liver disorders” (GENFIT, priority 2009, dated 2020):

What was measured:
[1] = system: patients suffering from impaired fasting glucose, impaired glucose tolerance and abdominal obesity; test: Second pilot double-blind placebo-controlled randomized study, Cpd 29 80 mg/day, 28 days; format: in vivo, human; settings: 80 mg/day oral
Description: 1-[4-methylthiophenyl]-3-[3,5-dimethyl-4-carboxydimethylmethyloxyphenyl]prop-2-en-1-one (Cpd 29 of WO 2004/005233) has been formulated as hard shell capsules containing 5, 10 or 20 mg of the compound. The compound (80 mg) was administered orally once daily for 28 days. The study has been performed in two parallel groups in double-blind conditions: placebo or Cpd 29 of WO 2004/005233.
The tolerability and safety of once-a-day administrations, as well as the efficacy in improving plasma lipids and glucose homeostasis compared with placebo, were evaluated in two pilot trials using relevant biochemical parameters. The data were used to calculate the percentage of change due to the compound when compared to the placebo after 28 days of treatment.
A second pilot, double-blind, placebo controlled, randomized study has been performed in patients suffering from impaired fasting glucose, impaired glucose tolerance and abdominal obesity for assessing the tolerability and safety of once-a-day administrations of oral doses of Cpd 29 of WO 2004/005233 (at the dose of 80 mg/day), as well as the efficacy on glucose and lipid metabolism.

[2] = system: hApoE2 KI mice; test: hApoE2 KI mice on Western diet, 12 weeks, hepatic gene expression by quantitative RT-PCR; format: in vivo; settings: 12 weeks in Western diet, Cpd 29 0.3 mg/kg/day
Description: The compounds of the General Formula (I) were tested in vivo in a high fat diet mice model. Dyslipidemic “humanized” ApoE2 knock-in mice (hApoE2 KI) were fed a Western diet and treated during 12 weeks. The compounds of interest, including the Compound 29 of WO 2004/005233 at 0.3 mg/kg/day and the Fenofibrate at 100 mg/kg/day (used as a reference compound) were incorporated into the diet. At the end of the protocol, animals were sacrificed, livers were harvested and the hepatic expression of genes that are known to be implicated in the liver inflammation and the fibrosis processes were evaluated by quantitative RT-PCR (Panels A-D). Statistical analysis was performed as indicated for FIG. 1.
Female hApoE2 knock-in (KI) transgenic mice (Sullivan et al., 1998)(4 weeks of age). Mice were kept on a 12-hour light/dark cycle at a constant temperature of 20±3° C. After a 1 week acclimation, mice were separated in groups of 7-10 animals selected such as the distribution of their body weight and plasmatic lipid levels determined before the experiment were uniform. Animals were fed a Western diet (20% saturated fat and 0.2% cholesterol, Harlan Teklad TD88137) at weaning and during 12 weeks. Compounds of interest (Cpd 29 at 0.3 mg/kg/day and Fenofibrate at 100 mg/kg/day) were incorporated in the Western diet (SAFE, Augy, France) and administrated to mice during 12 weeks. Control animals received Western diet only. Animals had access to food and water ad libitum.
(§1) At the end of the studies, the animals were weighed and sacrificed under anesthesia. Blood was collected from the retro-orbital sinus; plasma was obtained by centrifugation (4 000 rpm, at 4° C. for 15 min) and subsequently frozen and stored at −20° C. Tissues and livers were isolated and snap-frozen in liquid nitrogen and stored at −80° C. for subsequent analysis (gene expression and biochemistry) or fixed in 4% paraformaldehyde for histology.
Total RNA was isolated from frozen livers using the NucleoSpin® 96 RNA kit (Macherey Nagel), according to the manufacturer's instructions. Reverse transcription was performed on 1 μg of total RNA by action of 1 μl of MMLV-RT enzyme (Invitrogen) during 1 hour at 37° C. in a total volume of 30 μl. […] Quantitative PCR was then carried out using the MyiQ Single-Color Real-Time PCR Detection System (Biorad). […]
The quantity of fluorescence emitted is directly proportional to the quantity of complementary DNA present at the start of the reaction and amplified during the PCR. The relative levels of expression were determined using the standard curve for each transcript. […] The induction factor, i.e. the ratio between the relative signal induced by the compound according to the invention and the average of the values relating to the control group, was then calculated for each sample. […]

[3] = system: hApoE2 KI/PPARalpha KO mice; test: hApoE2 KI/PPARalpha KO mice on Western diet, hepatic gene expression by quantitative RT-PCR; format: in vivo; settings: 30 mg/kg/day by gavage, 6 weeks
Description: The compounds of the General Formula (I) were tested in vivo in a high fat diet mice model. Dyslipidemic “humanized” hApoE2 KI deficient for PPARalpha were fed a Western diet and treated during 6 weeks. The compounds of interest, including the Compound 29 of WO 2004/005233 at 30 mg/kg/day and the Compound 1 of WO 2007/147879 at 30 mg/kg/day were orally administrated by gavage. At the end of the protocol, animals were sacrificed, livers were harvested and the hepatic expression of relevant genes implicated in the liver inflammation and the fibrosis processes were evaluated by quantitative RT-PCR. In parallel, liver triglycerides contents were evaluated (Panels A-D). Statistical analysis was performed as indicated for FIG. 1.
Animals were fed a Western diet (20% saturated fat and 0.2% cholesterol, Harlan Teklad TD88137) during 2 weeks in the first study, that involved the daily administration of Cpd 29 (at 30 mg/kg/day by oral gavage), and during 6 weeks in the second study, that involved the daily administration of Compound 1 of WO 2007147879 (Cpd1, at 30 mg/kg/day by oral gavage). Control animals were treated with vehicle only (Carboxymethlycellulose 1%+Tween-80 0.1%). Animals had access to food and water ad libitum.
as §1
Total RNA was isolated from frozen livers using the NucleoSpin® 96 RNA kit (Macherey Nagel), according to the manufacturer's instructions. Reverse transcription was performed on 1 μg of total RNA by action of 1 μl of MMLV-RT enzyme (Invitrogen) during 1 hour at 37° C. in a total volume of 30 μl. The reaction conditions were 1× buffer (Invitrogen), 1.5 mM DTT (Invitrogen), 0.18 mM dNTPs (Promega), 200 ng pdN6 (Amersham), 30U RNase inhibitor (Promega). Quantitative PCR was then carried out using the MyiQ Single-Color Real-Time PCR Detection System (Biorad). Briefly PCR reactions were performed in 96 well plates on 5 μl of diluted reverse transcription mix using the iQ SYBR Green Supermix kit. The reaction conditions were: 25 μl of volume reaction, 3 mM of MgCl2, and 0.5 μl of each reverse and forward primer solutions (10 pMol), Tm of 60° C.
The quantity of fluorescence emitted is directly proportional to the quantity of complementary DNA present at the start of the reaction and amplified during the PCR. The relative levels of expression were determined using the standard curve for each transcript. The results were then normalized in regard to the signals obtained with the 36B4 control (a reference transcript for hepatic gene expression). The induction factor, i.e. the ratio between the relative signal induced by the compound according to the invention and the average of the values relating to the control group, was then calculated for each sample. The higher this factor, the more the compound promotes target gene expression. The final result is depicted as the average of the induction values in each experimental group.
In another study, the liver-specific anti-inflammatory and anti-fibrotic properties effects of Cpd 29 and Compound 1 of WO 2007/147879 (Cpd 1) were evaluated in the hApoE2 KI/PPARalpha KO mice that were fed a Western diet and daily treated with the selected compounds during 6 weeks.

1-[4-methylthiophenyl]-3-[3,5-dimethyl-4-carboxydimethylmethyloxyphenyl]prop-2-en-1-one [Cpd 29]
LDL-C [1]: reduced | plasma triglycerides, change relative to placebo ([1]; p<0.001): −25% | HDL-C, change relative to placebo ([1]; p<0.01): +9% | fasting insulinemia, change relative to placebo ([1]; p<0.01): −25% | insulin resistance index, HOMA-IR, change relative to placebo ([1]; p<0.01): −31% | liver acute phase inflammation marker haptoglobin ([1]; p<0.01): reduction | reduction of Gamma Glutamyl transpeptidase level ([1]; p<0.01): 15% | fasting plasma glucose, change relative to placebo ([1]; p<0.05): −5% | hepatic expression of Col1a1 (collagen genes) ([2]; Fenofibrate 100 mg/kg/day, FIG. 3D): statistically significant inhibition | hepatic expression of TNFα ([2]; FIG. 3A): inhibited | hepatic expression of CCL5 ([2]; FIG. 3B): inhibited | hepatic expression of TGFβ ([2]; FIG. 3C): inhibited | liver expression of TNFα ([3]; FIG. 4A): inhibited | liver expression of TGFβ ([3]; FIG. 4B): inhibited | liver expression of collagen ([3]; FIG. 4C): inhibited
